{"source": "ChEMBL document CHEMBL1142541", "about": "“3D-QSAR studies of heterocyclic quinones with inhibitory activity on vascular smooth muscle cell proliferation using pharmacophore-based alignment” (Bioorg Med Chem, 2008)"}
{"assay": "Inhibition of PDGF-induced proliferation in RAOSMC", "set-up": "species or system Rattus norvegicus", "units": {"IC50": "µM"}}
{"smiles": "O=C1C(Cl)=C(Nc2ccccc2)C(=O)c2[nH]cnc21", "IC50": 5.5, "pIC50": 5.26}
{"smiles": "O=C1C(Cl)=C(Nc2cccc(Br)c2)C(=O)c2[nH]cnc21", "IC50": 1.6}
{"smiles": "O=C1C(Br)=C(Nc2ccc(F)cc2)C(=O)c2[nH]cnc21", "IC50": 1, "pIC50": 6}
{"smiles": "O=C1C(Br)=C(Nc2cccc(I)c2)C(=O)c2[nH]cnc21", "IC50": 2.5}
{"smiles": "Cc1nc2c([nH]1)C(=O)/C(=N/c1ccc(F)c(F)c1F)C(Cl)=C2O", "IC50": 0.8}
{"smiles": "Cc1nc2c([nH]1)C(=O)/C(=N/c1ccccc1)C(Cl)=C2O", "IC50": 0.8}
{"smiles": "Cc1ccc(NC2=C(Br)C(=O)c3nc[nH]c3C2=O)cc1", "IC50": 1}
{"smiles": "Cc1nc2c([nH]1)C(=O)/C(=N/c1cccc(Br)c1)C(Cl)=C2O", "IC50": 1}
{"smiles": "Cc1nc2c([nH]1)C(=O)/C(=N/c1ccc(F)cc1)C(Cl)=C2O", "IC50": 3}
{"smiles": "O=C1C(Cl)=C(Nc2ccccc2)C(=O)c2[nH]c(C(F)(F)F)nc21", "IC50": 50}
{"smiles": "Cc1nc2c([nH]1)C(=O)/C(=N/c1cccc(Cl)c1)C(Cl)=C2O", "IC50": 0.9}
{"smiles": "O=C1C(Cl)=C(Nc2cccc(Cl)c2)C(=O)c2[nH]cnc21", "IC50": 1.4}
{"smiles": "O=C1C(Cl)=C(Nc2cccc(I)c2)C(=O)c2[nH]cnc21", "IC50": 1.3}
{"smiles": "O=C1C(Br)=C(Nc2ccc(Cl)cc2)C(=O)c2[nH]cnc21", "IC50": 4}
{"smiles": "O=C1C(Br)=C(Nc2ccccc2)C(=O)c2[nH]cnc21", "IC50": 1.1}
{"smiles": "O=C1C(Cl)=C(Nc2ccc(I)cc2)C(=O)c2[nH]c(C(F)(F)F)nc21", "IC50": 25}
{"smiles": "O=C1C(Cl)=C(Nc2ccc(Cl)cc2)C(=O)c2[nH]c(C(F)(F)F)nc21", "IC50": 15, "pIC50": 4.82}
{"smiles": "Cc1ccc(NC2=C(Cl)C(=O)c3nc(C(F)(F)F)[nH]c3C2=O)cc1", "IC50": 40}
{"smiles": "O=C1C(Cl)=C(Nc2ccc(I)cc2)C(=O)c2[nH]cnc21", "IC50": 1.3, "pIC50": 5.89}
{"smiles": "O=C1C(Cl)=C(Nc2ccc(F)cc2)C(=O)c2[nH]c(C(F)(F)F)nc21", "IC50": 12}
{"smiles": "Cc1nc2c([nH]1)C(=O)/C(=N/c1ccc(I)cc1)C(Cl)=C2O", "IC50": 1}
{"smiles": "O=C1C(Cl)=C(Nc2ccc(F)cc2)C(=O)c2[nH]cnc21", "IC50": 1.2}
{"smiles": "O=C1C(Cl)=C(Nc2ccc(OC(F)(F)F)cc2)C(=O)c2[nH]c(-c3ccccn3)nc21", "IC50": 6}
{"smiles": "O=C1C(Cl)=C(Nc2ccc(F)cc2)C(=O)c2[nH]c(-c3ccncc3)nc21", "IC50": 50}
{"smiles": "O=C1C=C(Nc2ccc(Br)cc2)C(=O)c2[nH]c(-c3ccccn3)nc21", "IC50": 12}
{"smiles": "O=C1C=C(Nc2ccc(Cl)cc2)C(=O)c2[nH]c(-c3ccccn3)nc21", "IC50": 13}
{"smiles": "O=C1C=C(Nc2ccc(I)cc2)C(=O)c2[nH]c(-c3ccccn3)nc21", "IC50": 20}
{"smiles": "Cc1nc2c([nH]1)C(=O)/C(=N/c1ccc(F)cc1F)C(Cl)=C2O", "IC50": 1.2}
{"smiles": "Cc1ccc(NC2=C(Cl)C(=O)c3nc[nH]c3C2=O)cc1", "IC50": 1.4}
{"smiles": "O=C1C(Cl)=C(Nc2ccc(C(F)(F)F)cc2)C(=O)c2[nH]cnc21", "IC50": 2.5, "pIC50": 5.6}
{"smiles": "O=C1C(Cl)=C(Nc2ccc(C(F)(F)F)cc2)C(=O)c2[nH]c(C(F)(F)F)nc21", "IC50": 20}
{"smiles": "Cc1ccc(NC2=C(Cl)C(=O)c3nc(C)[nH]c3C2=O)cc1", "IC50": 0.8}
{"smiles": "Cc1nc2c([nH]1)C(=O)/C(=N/c1ccc(Cl)cc1)C(Cl)=C2O", "IC50": 2.8, "pIC50": 5.55}
{"smiles": "COc1ccc(NC2=C(Cl)C(=O)c3nc(-c4ccncc4)[nH]c3C2=O)cc1", "IC50": 50, "pIC50": 4.3}
{"smiles": "O=C1C(Cl)=C(Nc2ccc(F)cc2)C(=O)c2[nH]c(-c3cccnc3)nc21", "IC50": 21}
{"smiles": "O=C1C(Cl)=C(Nc2ccc(F)c(F)c2)C(=O)c2[nH]cnc21", "IC50": 1.1}
{"smiles": "Cc1nc2c([nH]1)C(=O)/C(=N/c1ccc(Cl)cc1Cl)C(Cl)=C2O", "IC50": 0.8}
{"smiles": "O=C1C(Br)=C(Nc2ccc(C(F)(F)F)cc2)C(=O)c2[nH]cnc21", "IC50": 3.1}
{"smiles": "Cc1nc2c([nH]1)C(=O)/C(=N/c1cccc(Cl)c1Cl)C(Cl)=C2O", "IC50": 0.6}
{"smiles": "Cc1nc2c([nH]1)C(=O)/C(=N/c1ccc(C(F)(F)F)cc1)C(Cl)=C2O", "IC50": 0.6}
{"smiles": "Cc1cccc(NC2=C(Cl)C(=O)c3nc(-c4ccncc4)[nH]c3C2=O)c1", "IC50": 60}
{"smiles": "O=C1C=C(Nc2ccc(OC(F)(F)F)cc2)C(=O)c2[nH]c(-c3ccccn3)nc21", "IC50": 20}
{"smiles": "O=C1C(Cl)=C(Nc2cccc(Cl)c2)C(=O)c2[nH]c(-c3ccccn3)nc21", "IC50": 3.5}
{"smiles": "Cc1ccc(NC2=C(Cl)C(=O)c3nc(-c4cccnc4)[nH]c3C2=O)cc1", "IC50": 45, "pIC50": 4.35}
{"smiles": "O=C1C(Cl)=C(Nc2cccc(F)c2)C(=O)c2[nH]c(-c3ccncc3)nc21", "IC50": 19}
{"smiles": "O=C1C(Cl)=C(Nc2cccc(Br)c2)C(=O)c2[nH]c(-c3ccncc3)nc21", "IC50": 20, "pIC50": 4.7}
{"smiles": "CCOc1ccc(NC2=C(Cl)C(=O)c3nc(-c4cccnc4)[nH]c3C2=O)cc1", "IC50": 42}
{"smiles": "O=C1C(Cl)=C(Nc2ccc(OC(F)(F)F)cc2)C(=O)c2nc(-c3ccccn3)c(-c3ccccn3)nc21", "IC50": 1}
{"smiles": "O=C1C(Cl)=C(Nc2ccc(F)cc2F)C(=O)c2[nH]cnc21", "IC50": 2.7}
{"smiles": "Cc1nc2c(nc1C)C(=O)C(Nc1ccc(F)cc1)=CC2=O", "IC50": 3.1, "pIC50": 5.51}
{"smiles": "Cc1nc2c(nc1C)C(=O)C(Nc1ccc(Cl)cc1)=CC2=O", "IC50": 3.3}
{"smiles": "Cc1nc2c(nc1C)C(=O)C(Nc1ccc(Br)cc1)=CC2=O", "IC50": 1.1}
{"smiles": "O=C1C(Cl)=C(Nc2ccc(Br)cc2)C(=O)c2[nH]cnc21", "IC50": 2}
{"smiles": "O=C1C(Cl)=C(Nc2ccc(Cl)cc2)C(=O)c2nc(-c3ccccn3)c(-c3ccccn3)nc21", "IC50": 1.5, "pIC50": 5.82}
{"smiles": "O=C1C(Cl)=C(Nc2ccc(O)cc2)C(=O)c2nc(-c3ccccn3)c(-c3ccccn3)nc21", "IC50": 5.5, "pIC50": 5.26}
{"smiles": "Cc1nc2c([nH]1)C(=O)C(Nc1ccc(OC(F)(F)F)cc1)=C(Cl)C2=O", "IC50": 3}
{"smiles": "O=C1C(Cl)=C(Nc2cc(F)c(F)c(F)c2)C(=O)c2nc(-c3ccccn3)c(-c3ccccn3)nc21", "IC50": 1.2}
{"smiles": "N#Cc1ccc(NC2=C(Cl)C(=O)c3nc[nH]c3C2=O)cc1", "IC50": 2.7}
{"smiles": "Cc1nc2c(nc1C)C(=O)C(Nc1cc(F)cc(F)c1)=CC2=O", "IC50": 4.5}
{"smiles": "O=C1C(Cl)=C(Nc2ccccc2)C(=O)c2nc(-c3ccccn3)c(-c3ccccn3)nc21", "IC50": 3.1}
{"smiles": "Cc1nc2c(nc1C)C(=O)C(Nc1ccc(Cl)c(Cl)c1)=CC2=O", "IC50": 3.8}
{"smiles": "O=C1C(Cl)=C(Nc2ccc(F)cc2)C(=O)c2nc(-c3ccccn3)c(-c3ccccn3)nc21", "IC50": 1}
{"smiles": "O=C1C(Br)=C(Nc2cccc(Br)c2)C(=O)c2[nH]cnc21", "IC50": 5.3}
{"smiles": "O=C1C(Cl)=C(Nc2ccc(OC(F)(F)F)cc2)C(=O)c2[nH]cnc21", "IC50": 2.5}
{"smiles": "O=C1C(Cl)=C(Nc2cccc(Br)c2)C(=O)c2[nH]c(-c3ccccn3)nc21", "IC50": 20}
{"smiles": "CCOc1ccc(NC2=C(Cl)C(=O)c3nc(-c4ccncc4)[nH]c3C2=O)cc1", "IC50": 75}
{"smiles": "CCOc1ccc(NC2=CC(=O)c3nc(C)c(C)nc3C2=O)cc1", "IC50": 1.5}
{"smiles": "O=C1C(Br)=C(Nc2cccc(C(F)(F)F)c2)C(=O)c2[nH]cnc21", "IC50": 3}
{"smiles": "CCc1ccc(NC2=C(Cl)C(=O)c3nc(C)[nH]c3C2=O)cc1", "IC50": 3, "pIC50": 5.52}
{"smiles": "O=C1C(Cl)=C(Nc2ccccc2F)C(=O)c2[nH]cnc21", "IC50": 1.7, "pIC50": 5.77}
{"smiles": "O=C1C(Cl)=C(Nc2cccc(Cl)c2)C(=O)c2[nH]c(-c3ccncc3)nc21", "IC50": 31}
{"smiles": "O=C1C(Cl)=C(Nc2ccc(Cl)c(Cl)c2)C(=O)c2[nH]c(-c3ccncc3)nc21", "IC50": 13}
{"smiles": "O=C1C(Cl)=C(Nc2ccc(Cl)c(Cl)c2)C(=O)c2nc(-c3ccccn3)c(-c3ccccn3)nc21", "IC50": 1}
{"smiles": "O=C1C(Cl)=C(Nc2ccc(Cl)c(F)c2)C(=O)c2[nH]c(-c3ccncc3)nc21", "IC50": 25, "pIC50": 4.6}
{"smiles": "COc1ccc(NC2=C(Cl)C(=O)c3nc(-c4ccccn4)c(-c4ccccn4)nc3C2=O)cc1", "IC50": 3.5, "pIC50": 5.46}
{"smiles": "O=C1C(Br)=C(Nc2cccc(Cl)c2)C(=O)c2[nH]cnc21", "IC50": 3}
{"smiles": "O=C1C(Cl)=C(Nc2ccc(Br)cc2)C(=O)c2[nH]c(-c3ccncc3)nc21", "IC50": 60}
{"smiles": "O=C1C(Cl)=C(Nc2ccc(Cl)cc2)C(=O)c2[nH]c(-c3cccnc3)nc21", "IC50": 20}
{"smiles": "O=C1C(Cl)=C(Nc2ccc(Br)cc2)C(=O)c2[nH]c(-c3ccccn3)nc21", "IC50": 6.5}
{"smiles": "O=C1C(Cl)=C(Nc2ccc(Cl)cc2)C(=O)c2[nH]c(-c3ccccn3)nc21", "IC50": 12}
{"smiles": "CCOc1ccc(NC2=CC(=O)c3nc(-c4ccccn4)[nH]c3C2=O)cc1", "IC50": 6.5}
